Biological target: T1, Alpha-1A/Alpha-1B/Alpha-1D adrenergic receptor (Rattus norvegicus, UniProt P15823+P43140+P23944)
T1 sequence (P15823 whole entry): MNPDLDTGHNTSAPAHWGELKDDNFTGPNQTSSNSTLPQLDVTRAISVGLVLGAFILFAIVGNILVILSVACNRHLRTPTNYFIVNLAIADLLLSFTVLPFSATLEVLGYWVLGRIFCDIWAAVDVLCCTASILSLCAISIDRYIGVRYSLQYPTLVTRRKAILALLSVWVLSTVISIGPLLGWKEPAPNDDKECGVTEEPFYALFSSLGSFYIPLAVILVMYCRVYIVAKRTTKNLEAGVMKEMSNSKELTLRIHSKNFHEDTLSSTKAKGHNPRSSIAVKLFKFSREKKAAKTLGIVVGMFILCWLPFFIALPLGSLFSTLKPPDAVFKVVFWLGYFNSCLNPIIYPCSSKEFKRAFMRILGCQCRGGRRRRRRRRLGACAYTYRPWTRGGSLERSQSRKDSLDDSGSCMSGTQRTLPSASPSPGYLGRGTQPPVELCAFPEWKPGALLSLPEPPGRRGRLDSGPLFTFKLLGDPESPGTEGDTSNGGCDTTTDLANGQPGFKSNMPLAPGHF
T1 sequence (P43140 whole entry): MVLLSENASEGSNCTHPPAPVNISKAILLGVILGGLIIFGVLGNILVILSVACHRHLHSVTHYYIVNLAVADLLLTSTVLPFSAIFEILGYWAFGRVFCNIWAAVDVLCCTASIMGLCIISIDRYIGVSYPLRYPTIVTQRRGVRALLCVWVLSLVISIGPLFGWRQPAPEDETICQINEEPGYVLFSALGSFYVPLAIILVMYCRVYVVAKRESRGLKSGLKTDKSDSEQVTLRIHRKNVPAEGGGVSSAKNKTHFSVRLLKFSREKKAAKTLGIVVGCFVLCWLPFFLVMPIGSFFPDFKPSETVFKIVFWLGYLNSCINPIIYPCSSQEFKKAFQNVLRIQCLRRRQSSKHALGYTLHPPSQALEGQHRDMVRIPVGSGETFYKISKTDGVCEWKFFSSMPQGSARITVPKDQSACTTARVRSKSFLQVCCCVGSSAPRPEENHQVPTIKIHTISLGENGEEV
T1 sequence (P23944 whole entry): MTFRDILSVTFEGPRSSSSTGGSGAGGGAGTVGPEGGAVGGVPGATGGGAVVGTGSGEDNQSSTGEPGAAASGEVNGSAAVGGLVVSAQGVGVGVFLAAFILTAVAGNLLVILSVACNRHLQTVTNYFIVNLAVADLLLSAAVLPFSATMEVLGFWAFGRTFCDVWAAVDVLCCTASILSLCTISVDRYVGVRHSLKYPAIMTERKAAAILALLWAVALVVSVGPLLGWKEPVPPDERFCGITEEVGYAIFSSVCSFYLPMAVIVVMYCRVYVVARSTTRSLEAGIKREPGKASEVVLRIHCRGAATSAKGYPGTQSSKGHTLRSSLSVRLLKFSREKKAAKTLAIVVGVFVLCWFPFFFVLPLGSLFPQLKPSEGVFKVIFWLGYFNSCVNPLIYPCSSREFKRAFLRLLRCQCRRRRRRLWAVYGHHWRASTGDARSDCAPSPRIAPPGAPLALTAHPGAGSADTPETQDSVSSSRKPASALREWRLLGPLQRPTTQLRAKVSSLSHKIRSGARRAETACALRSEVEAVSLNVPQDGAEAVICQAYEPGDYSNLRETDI
Assay: Binding affinity towards Alpha-1 adrenergic receptor in rat cerebral cortex membranes using [3H]prazosin as radioligand

Ki: > 1000 nM
SMILES: O=c1n(CN2CCN(c3cccc4ccccc34)CC2)c(O)c2n1CCC2 [2-(4-Naphthalen-1-yl-piperazin-1-ylmethyl)-tetrahydro-pyrrolo[1,2-c]imidazole-1,3-dione]
